According to the NIST ThermoML archive (doi:10.1016/j.jct.2016.08.008):
± gives the expanded uncertainty stated by the source.

Assay: activity coefficient (dimensionless); of the first substance listed, at infinite dilution; xn = mol fraction of the nth substance listed
Conditions: 101.33 kPa, Liquid, Chromatography, x1 = 0

## C#CCCCCCC [1-octyne] + CCCCCCCCCCCCn1cc[n+](C)c1.O=S(=O)([N-]S(=O)(=O)C(F)(F)F)C(F)(F)F
318.15 K
  activity coefficient: 1.74 ± 0.12
328.15 K
  activity coefficient: 1.8 ± 0.12
338.15 K
  activity coefficient: 1.87 ± 0.13
348.15 K
  activity coefficient: 1.93 ± 0.13
358.15 K
  activity coefficient: 1.99 ± 0.14
368.15 K
  activity coefficient: 2.06 ± 0.14

## C1CCCCCC1 [cycloheptane] + CCCCCCCCCCCCn1cc[n+](C)c1.O=S(=O)([N-]S(=O)(=O)C(F)(F)F)C(F)(F)F
318.15 K
  activity coefficient: 2.43 ± 0.17
328.15 K
  activity coefficient: 2.45 ± 0.17
338.15 K
  activity coefficient: 2.47 ± 0.17
348.15 K
  activity coefficient: 2.49 ± 0.17
358.15 K
  activity coefficient: 2.5 ± 0.17
368.15 K
  activity coefficient: 2.52 ± 0.17

## CCCCCCCC [octane] + CCCCCCCCCCCCn1cc[n+](C)c1.O=S(=O)([N-]S(=O)(=O)C(F)(F)F)C(F)(F)F
318.15 K
  activity coefficient: 4.17 ± 0.28
328.15 K
  activity coefficient: 4.22 ± 0.29
338.15 K
  activity coefficient: 4.27 ± 0.29
348.15 K
  activity coefficient: 4.32 ± 0.29
358.15 K
  activity coefficient: 4.37 ± 0.3
368.15 K
  activity coefficient: 4.42 ± 0.3

## C1CCOC1 [tetrahydrofuran] + CCCCCCCCCCCCn1cc[n+](C)c1.O=S(=O)([N-]S(=O)(=O)C(F)(F)F)C(F)(F)F
318.15 K
  activity coefficient: 0.394 ± 0.034
328.15 K
  activity coefficient: 0.417 ± 0.035
338.15 K
  activity coefficient: 0.44 ± 0.04
348.15 K
  activity coefficient: 0.462 ± 0.036
358.15 K
  activity coefficient: 0.484 ± 0.037
368.15 K
  activity coefficient: 0.508 ± 0.038

## CCOC(C)=O [ethyl acetate] + CCCCCCCCCCCCn1cc[n+](C)c1.O=S(=O)([N-]S(=O)(=O)C(F)(F)F)C(F)(F)F
318.15 K
  activity coefficient: 0.541 ± 0.04
328.15 K
  activity coefficient: 0.567 ± 0.041
338.15 K
  activity coefficient: 0.593 ± 0.042
348.15 K
  activity coefficient: 0.619 ± 0.043
358.15 K
  activity coefficient: 0.645 ± 0.044
368.15 K
  activity coefficient: 0.67 ± 0.045

## O [water] + CCCCCCCCCCCCn1cc[n+](C)c1.O=S(=O)([N-]S(=O)(=O)C(F)(F)F)C(F)(F)F
318.15 K
  activity coefficient: 4.49 ± 0.31
328.15 K
  activity coefficient: 4.02 ± 0.27
338.15 K
  activity coefficient: 3.64 ± 0.25
348.15 K
  activity coefficient: 3.31 ± 0.23
358.15 K
  activity coefficient: 3.03 ± 0.21
368.15 K
  activity coefficient: 2.78 ± 0.19

## C=CCCC [1-pentene] + CCCCCCCCCCCCn1cc[n+](C)c1.O=S(=O)([N-]S(=O)(=O)C(F)(F)F)C(F)(F)F
318.15 K
  activity coefficient: 1.82 ± 0.12
328.15 K
  activity coefficient: 1.88 ± 0.13
338.15 K
  activity coefficient: 1.93 ± 0.13
348.15 K
  activity coefficient: 1.99 ± 0.14
358.15 K
  activity coefficient: 2.04 ± 0.14
368.15 K
  activity coefficient: 2.08 ± 0.14

## CC(C)CO [2-methyl-1-propanol] + CCCCCCCCCCCCn1cc[n+](C)c1.O=S(=O)([N-]S(=O)(=O)C(F)(F)F)C(F)(F)F
318.15 K
  activity coefficient: 1.52 ± 0.1
328.15 K
  activity coefficient: 1.42 ± 0.09
338.15 K
  activity coefficient: 1.34 ± 0.09
348.15 K
  activity coefficient: 1.26 ± 0.08
358.15 K
  activity coefficient: 1.19 ± 0.08
368.15 K
  activity coefficient: 1.13 ± 0.07

## CCC(=O)CC [pentan-3-one] + CCCCCCCCCCCCn1cc[n+](C)c1.O=S(=O)([N-]S(=O)(=O)C(F)(F)F)C(F)(F)F
318.15 K
  activity coefficient: 0.418 ± 0.035
328.15 K
  activity coefficient: 0.444 ± 0.036
338.15 K
  activity coefficient: 0.47 ± 0.037
348.15 K
  activity coefficient: 0.496 ± 0.038
358.15 K
  activity coefficient: 0.521 ± 0.039
368.15 K
  activity coefficient: 0.546 ± 0.04

## CCCC(=O)OC [methyl butanoate] + CCCCCCCCCCCCn1cc[n+](C)c1.O=S(=O)([N-]S(=O)(=O)C(F)(F)F)C(F)(F)F
318.15 K
  activity coefficient: 0.613 ± 0.043
328.15 K
  activity coefficient: 0.643 ± 0.044
338.15 K
  activity coefficient: 0.674 ± 0.046
348.15 K
  activity coefficient: 0.704 ± 0.047
358.15 K
  activity coefficient: 0.733 ± 0.049
368.15 K
  activity coefficient: 0.762 ± 0.05

## C=CCCCCCC [oct-1-ene] + CCCCCCCCCCCCn1cc[n+](C)c1.O=S(=O)([N-]S(=O)(=O)C(F)(F)F)C(F)(F)F
318.15 K
  activity coefficient: 3.03 ± 0.21
328.15 K
  activity coefficient: 3.1 ± 0.21
338.15 K
  activity coefficient: 3.17 ± 0.22
348.15 K
  activity coefficient: 3.23 ± 0.22
358.15 K
  activity coefficient: 3.29 ± 0.22
368.15 K
  activity coefficient: 3.35 ± 0.23

## CC(C)OC(C)C [diisopropyl ether] + CCCCCCCCCCCCn1cc[n+](C)c1.O=S(=O)([N-]S(=O)(=O)C(F)(F)F)C(F)(F)F
318.15 K
  activity coefficient: 1.65 ± 0.11
328.15 K
  activity coefficient: 1.72 ± 0.12
338.15 K
  activity coefficient: 1.79 ± 0.12
348.15 K
  activity coefficient: 1.86 ± 0.13
358.15 K
  activity coefficient: 1.93 ± 0.13
368.15 K
  activity coefficient: 1.99 ± 0.14

## CCC[N+](=O)[O-] [1-nitropropane] + CCCCCCCCCCCCn1cc[n+](C)c1.O=S(=O)([N-]S(=O)(=O)C(F)(F)F)C(F)(F)F
318.15 K
  activity coefficient: 0.567 ± 0.041
328.15 K
  activity coefficient: 0.582 ± 0.041
338.15 K
  activity coefficient: 0.596 ± 0.042
348.15 K
  activity coefficient: 0.609 ± 0.043
358.15 K
  activity coefficient: 0.621 ± 0.043
368.15 K
  activity coefficient: 0.634 ± 0.044

## CCCCCO [pentan-1-ol] + CCCCCCCCCCCCn1cc[n+](C)c1.O=S(=O)([N-]S(=O)(=O)C(F)(F)F)C(F)(F)F
318.15 K
  activity coefficient: 1.52 ± 0.1
328.15 K
  activity coefficient: 1.46 ± 0.1
338.15 K
  activity coefficient: 1.4 ± 0.09
348.15 K
  activity coefficient: 1.35 ± 0.09
358.15 K
  activity coefficient: 1.3 ± 0.08
368.15 K
  activity coefficient: 1.26 ± 0.08

## CCCCO [butan-1-ol] + CCCCCCCCCCCCn1cc[n+](C)c1.O=S(=O)([N-]S(=O)(=O)C(F)(F)F)C(F)(F)F
318.15 K
  activity coefficient: 1.55 ± 0.1
328.15 K
  activity coefficient: 1.46 ± 0.1
338.15 K
  activity coefficient: 1.38 ± 0.09
348.15 K
  activity coefficient: 1.31 ± 0.09
358.15 K
  activity coefficient: 1.24 ± 0.08
368.15 K
  activity coefficient: 1.19 ± 0.08

## C1CCCCC1 [cyclohexane] + CCCCCCCCCCCCn1cc[n+](C)c1.O=S(=O)([N-]S(=O)(=O)C(F)(F)F)C(F)(F)F
318.15 K
  activity coefficient: 2.14 ± 0.15
328.15 K
  activity coefficient: 2.15 ± 0.15
338.15 K
  activity coefficient: 2.17 ± 0.15
348.15 K
  activity coefficient: 2.18 ± 0.15
358.15 K
  activity coefficient: 2.19 ± 0.15
368.15 K
  activity coefficient: 2.21 ± 0.15

## c1ccccc1 [benzene] + CCCCCCCCCCCCn1cc[n+](C)c1.O=S(=O)([N-]S(=O)(=O)C(F)(F)F)C(F)(F)F
318.15 K
  activity coefficient: 0.568 ± 0.041
328.15 K
  activity coefficient: 0.594 ± 0.042
338.15 K
  activity coefficient: 0.619 ± 0.043
348.15 K
  activity coefficient: 0.644 ± 0.044
358.15 K
  activity coefficient: 0.669 ± 0.045
368.15 K
  activity coefficient: 0.694 ± 0.047

## COC(C)=O [methyl ethanoate] + CCCCCCCCCCCCn1cc[n+](C)c1.O=S(=O)([N-]S(=O)(=O)C(F)(F)F)C(F)(F)F
318.15 K
  activity coefficient: 0.503 ± 0.038
328.15 K
  activity coefficient: 0.525 ± 0.039
338.15 K
  activity coefficient: 0.546 ± 0.04
348.15 K
  activity coefficient: 0.566 ± 0.041
358.15 K
  activity coefficient: 0.586 ± 0.042
368.15 K
  activity coefficient: 0.606 ± 0.042

## Cc1ccccc1C [1,2-dimethylbenzene] + CCCCCCCCCCCCn1cc[n+](C)c1.O=S(=O)([N-]S(=O)(=O)C(F)(F)F)C(F)(F)F
318.15 K
  activity coefficient: 0.812 ± 0.053
328.15 K
  activity coefficient: 0.851 ± 0.055
338.15 K
  activity coefficient: 0.892 ± 0.057
348.15 K
  activity coefficient: 0.93 ± 0.06
358.15 K
  activity coefficient: 0.968 ± 0.061
368.15 K
  activity coefficient: 1.01 ± 0.06

## CO [methanol] + CCCCCCCCCCCCn1cc[n+](C)c1.O=S(=O)([N-]S(=O)(=O)C(F)(F)F)C(F)(F)F
318.15 K
  activity coefficient: 1.29 ± 0.08
328.15 K
  activity coefficient: 1.22 ± 0.08
338.15 K
  activity coefficient: 1.15 ± 0.07
348.15 K
  activity coefficient: 1.1 ± 0.07
358.15 K
  activity coefficient: 1.05 ± 0.07
368.15 K
  activity coefficient: 1.01 ± 0.06

## C1=CCCCC1 [cyclohexene] + CCCCCCCCCCCCn1cc[n+](C)c1.O=S(=O)([N-]S(=O)(=O)C(F)(F)F)C(F)(F)F
318.15 K
  activity coefficient: 1.56 ± 0.1
328.15 K
  activity coefficient: 1.59 ± 0.11
338.15 K
  activity coefficient: 1.62 ± 0.11
348.15 K
  activity coefficient: 1.65 ± 0.11
358.15 K
  activity coefficient: 1.68 ± 0.11
368.15 K
  activity coefficient: 1.71 ± 0.11

## CCCCCCC [heptane] + CCCCCCCCCCCCn1cc[n+](C)c1.O=S(=O)([N-]S(=O)(=O)C(F)(F)F)C(F)(F)F
318.15 K
  activity coefficient: 3.55 ± 0.24
328.15 K
  activity coefficient: 3.6 ± 0.25
338.15 K
  activity coefficient: 3.65 ± 0.25
348.15 K
  activity coefficient: 3.7 ± 0.25
358.15 K
  activity coefficient: 3.74 ± 0.25
368.15 K
  activity coefficient: 3.78 ± 0.26

## CCCc1ccccc1 [propylbenzene] + CCCCCCCCCCCCn1cc[n+](C)c1.O=S(=O)([N-]S(=O)(=O)C(F)(F)F)C(F)(F)F
318.15 K
  activity coefficient: 1.1 ± 0.07
328.15 K
  activity coefficient: 1.15 ± 0.07
338.15 K
  activity coefficient: 1.21 ± 0.08
348.15 K
  activity coefficient: 1.25 ± 0.08
358.15 K
  activity coefficient: 1.3 ± 0.08
368.15 K
  activity coefficient: 1.35 ± 0.09
